The text below walks through data of patent US5053070A, “Pyrimidine derivatives, preparation processes thereof, herbicide containing the same, and herbicidal compositions containing the same along with other active ingredient” (Mitsui Toatsu Chemicals, Incorporated, priority 1988, dated 1991).

What all share (assay type): in vivo
Assay [1] has as its system redroot pigweed. Kind of assay: Upland foliar application test by mixed formulations (Test 7). As to conditions: Amaranthus retroflexus, 720 h, read-out: Herbicidal effects (%) Redrood pigweed Ea. As for the experimental part:
(§1) Resin-made 1/10,000-are pots were filled with the soil of an upland field. Redroot pigweed, morningglories, johnsongrass, barnyardgrass and green foxtail were separately seeded and were allowed to germinate in a green house. When each plant grew to the stage of 2-3 leaves, an emulsion formulated from predetermined amounts of two test compounds of different kinds in a similar manner to the method described in Formulation Example 16 was diluted with water to a predetermined dilution rate and then sprayed at an application rate equal to 5 l per are onto the foliage of each plant by means of a pressure-operated ULV (ultra low volume) sprayer. Influence to the weeds were observed on the 30th day after the spray of the herbicides. In the table, each Ea means an acutally measured value of herbicidal activities when two kinds of herbicides were mixed. Each Ec is an expected value for herbicidal activities, calculated in accordance with the below-described calculation formula proposed by Colby et al. [Colby, S. R., Weed 15, 20-22 (1967)]. Ea>Ec indicates the existence of synergistic action while […] action. [formula] Ec: Growth inhibition rate (%) expected when Ingredient I and Ingredient II are mixed.
(§2) Ex: Growth inhibition rate (%) when treated with Ingredient I alone.
(§3) Ey: Growth inhibition rate (%) when treated with Ingredient II alone.

Assay [2] has as its system green foxtail. Described as above. The settings on record: Setaria viridis, 720 h, read-out: Herbicidal effects (%) Green foxtail Ea. The procedure: as §1, §2, §3
Assay [3] relates to johnsongrass. The assay is described as above. As to conditions: Sorghum halepense, 720 h; for pest or weed control at 300 g/ha: read-out: Herbicidal effects (%) Johnsongrass Ea, applied alone, 0.3 kg/ha, foliar, 30th day; for pest or weed control at 1000 g/ha: read-out: Herbicidal effects (%) Johnsongrass Ea, applied alone, 1 kg/ha, foliar, 30th day. The procedure:
as §1, §2, §3

Assay [4] deals with johnsongrass. Kind of assay: Upland foliar application test by mixed formulations, concentration gradient (Test 8). As for the experimental part: (§4) Resin-made 1/10,000-are pots were filled with the soil of an upland field. Redroot pigweed and johnsongrass were separately seeded and were allowed to germinate in a green house. When each plant grew to the stage of 2-3 leaves, emulsions formulated with concentration gradient from predetermined amounts of two test compounds of different kinds in a similar manner to the method described in Formulation Example 16 was diluted with water to a predetermined dilution rate and then sprayed at an application rate equal to 5 l per are onto the foliage of each plant by means of a pressure-operated ULV (ultra low volume) sprayer. Influence to the weeds were observed on the 40th day after the spray of the herbicides. The results are shown in Table 9, In the table, Ea have the same meanings as in Test 7, and Ea>Ec indicates the existence of synergistic action while Ea<Ec indicates the existence of antagonistic action.

The test system of assay [5] is redroot pigweed. The assay is described as above. The procedure:
as §4

Assay [6] relates to morningglories. Description: Upland foliar application test by mixed formulations (Test 7). The settings on record: Ipomoea, 720 h, read-out: Herbicidal effects (%) Morningglory Ea. The procedure:
as §1, §2, §3

For assay [7], the system named is barnyardgrass. The assay is described as above. As to conditions: Echinochloa crus-galli, 720 h, read-out: Herbicidal effects (%) Barnyardgrass Ea. As for the experimental part:
as §1, §2, §3

Setting [8] is: applied alone, 0.2 kg/ha, 30th day.
Setting [9] is: Sorghum halepense, 960 h, applied alone, 2 g/a, 40th day, read-out: Herbicidal effects Johnsongrass Ea.
Setting [10] is: Sorghum halepense, 960 h, applied alone, 4 g/a, 40th day, read-out: Herbicidal effects Johnsongrass Ea.
Setting [11] is: Sorghum halepense, 960 h, applied alone, 8 g/a, 40th day, read-out: Herbicidal effects Johnsongrass Ea.
The mark [12] stands for this setting: Amaranthus retroflexus, 960 h, applied alone, 2 g/a, 40th day, read-out: Herbicidal effects Redrood pigweed Ea.
Setting [13] is: Amaranthus retroflexus, 960 h, applied alone, 4 g/a, 40th day, read-out: Herbicidal effects Redrood pigweed Ea.
The mark [14] stands for this setting: Amaranthus retroflexus, 960 h, applied alone, 8 g/a, 40th day, read-out: Herbicidal effects Redrood pigweed Ea.
Setting [15] is: read-out: Herbicidal effects (%) Johnsongrass Ea, applied alone, 0.5 kg/ha, foliar, 30th day.
Setting [16] is: Sorghum halepense, 960 h, read-out: Herbicidal effects Johnsongrass Ea.
The mark [17] stands for this setting: Amaranthus retroflexus, 960 h, read-out: Herbicidal effects Redrood pigweed Ea.

Where two headings read alike, the source gives them in different places.

Consider `CSc1nnc(C(C)(C)C)c(=O)n1N` [metribuzin, 4-amino-6-tert-butyl-3-methylthio-1,2,4-triazin-5(4H)-one, reference compound], for which the results for the pest or weed control at 200 g/ha in assay [1] (setting [8]) and in assay [2] (setting [8]) were 30% and 10%, respectively.
For the compound `CCc1cccc(C)c1N(C(=O)CCl)C(C)COC` (stereo not drawn) [metolachlor, 2-chloro-2'-ethyl-6'-methyl-N-(2-methoxy-1-methylethyl)acetanilide, reference compound], the pest or weed control at 1000 g/ha in assay [1] was found to be 40%; in assay [2] it was 10%.
With `CC(C)N1C(=O)c2ccccc2NS1(=O)=O` [bentazon, 3-isopropyl-(1H)-2,1,3-benzothiadiazin-4-(3H)-one-2,2-dioxide], the pest or weed control at 500 g/ha in assay [3] (applied alone, 0.5 kg/ha, 30th day, read-out: Herbicidal effects (%) Johnsongrass Ea) was 0%; in assay [1] (applied alone, 0.5 kg/ha, 30th day), 40%. The results for the pest or weed control at 200 g/ha in assay [4] (setting [9]) and in assay [5] (setting [12]) were 0% and 30%, respectively. Moreover, the pest or weed control at 400 g/ha in assay [4] (setting [10]) was 0%; in assay [5] (setting [13]), 40%. Besides, the pest or weed control at 800 g/ha was 20% in assay [4] (setting [11]) and 70% in assay [5] (setting [14]).
As to `CSc1nc(NC(C)C)nc(NC(C)C)n1` [prometryn, 2-methylthio-4,6-bis(isopropylamino)-1,3,5-triazine], the pest or weed control at 500 g/ha in assay [3] (setting [15]) was 20%. The pest or weed control at 500 g/ha in assay [6] was 30%. Further, in assay [4] (setting [16]), the pest or weed control at 200 g/ha worked out at 0%, the pest or weed control at 400 g/ha worked out at 10% and the pest or weed control at 800 g/ha is 20%. Moreover, in assay [5] (setting [17]), the pest or weed control at 200 g/ha came to 10%, the pest or weed control at 400 g/ha came to 20% and the pest or weed control at 800 g/ha turned out to be 40%.
With `CON(C)C(=O)Nc1ccc(Cl)c(Cl)c1` [linuron, 3-(3,4-dichlorophenyl)-1-methoxy-1-methylurea], the pest or weed control at 300 g/ha in assay [3] came to 10%. Further, in assay [6], the pest or weed control at 300 g/ha was 30%. In assay [4] (setting [16]), the pest or weed control at 200 g/ha is 0%, the pest or weed control at 400 g/ha amounted to 10% and the pest or weed control at 800 g/ha amounted to 20%. Also, in assay [5] (setting [17]), the pest or weed control at 200 g/ha was 40%, the pest or weed control at 400 g/ha worked out at 70% and the pest or weed control at 800 g/ha worked out at 85%.
As to `O=C(O)c1ccccc1C(=O)Nc1cccc2ccccc12` [naptalam, 2-(1-naphthalenylaminocarbonyl)benzoic acid], the pest or weed control at 1000 g/ha in assay [3] worked out at 10%. In assay [1], the pest or weed control at 1000 g/ha was 10%. In assay [4] (setting [16]), the pest or weed control at 400 g/ha was 0%, the pest or weed control at 800 g/ha is 10% and the pest or weed control at 1600 g/ha was determined as 20%. In assay [5] (setting [17]), the pest or weed control at 400 g/ha was determined as 0%, the pest or weed control at 800 g/ha amounted to 10% and the pest or weed control at 1600 g/ha amounted to 20%.
As for `CCCC(C)C(=O)Nc1ccc(C(C)C)c(Cl)c1` (stereo not drawn) [MT-5950, N-(3-chloro-4-isopropylphenyl)-2-methylpentamide], the results for the pest or weed control at 200 g/ha in assay [4] (setting [9]) and in assay [5] (setting [12]) were 10% and 30%, respectively. Besides, the pest or weed control at 400 g/ha in assay [4] (setting [10]) stood at 10%; in assay [5] (setting [13]) it was 70%. For the same compound, the pest or weed control at 800 g/ha turned out to be 20% in assay [4] (setting [11]) and 85% in assay [5] (setting [14]).
On to `CCC(=O)Nc1ccc(Cl)c(Cl)c1` [propanil, N-(3,4-dichlorophenyl)propanamide], for which the pest or weed control at 3000 g/ha in assay [3] (read-out: Herbicidal effects (%) Johnsongrass Ea, applied alone, 3 kg/ha, foliar, 30th day) was 10%. For the same compound, the pest or weed control at 3000 g/ha in assay [7] was determined as 40%. Further, in assay [4] (setting [16]), the pest or weed control at 2000 g/ha stood at 20%, the pest or weed control at 4000 g/ha came out at 30% and the pest or weed control at 8000 g/ha came out at 50%. Also, in assay [5] (setting [17]), the pest or weed control at 2000 g/ha turned out to be 30%, the pest or weed control at 4000 g/ha amounted to 70% and the pest or weed control at 8000 g/ha amounted to 70%.
Consider “2-methylthio-4-methylamino-6-isopropylamino-1,3,5-triazine [Ametryn]”, for which the “Herbicidal effects Johnsongrass Ea” value in assay [4] (applied alone, 2 g/a, 40th day) is reported as 0%; in assay [4] (applied alone, 4 g/a, 40th day), 10%; in assay [4] (applied alone, 8 g/a, 40th day), 20%. In addition, the “Herbicidal effects Redrood pigweed Ea” value in assay [5] (applied alone, 2 g/a, 40th day) amounted to 10%; in assay [5] (applied alone, 4 g/a, 40th day) it was 20%; in assay [5] (applied alone, 8 g/a, 40th day), 30%.
For `CCNc1nc(Cl)nc(NC(C)C)n1` [atrazine, 2-chloro-4-ethylamino-6-isopropylamino-1,3,5-triazine], the pest or weed control at 800 g/ha in assay [3] (read-out: Herbicidal effects (%) Johnsongrass Ea, applied alone, 0.8 kg/ha, foliar, 30th day) stood at 10%; in assay [1] it was 40%; in assay [4] (setting [16]) it was 10%; in assay [5] (setting [17]), 40%. The results for the pest or weed control at 200 g/ha in assay [4] (setting [16]) and in assay [5] (setting [17]) were 0% and 10%, respectively. Also, the pest or weed control at 400 g/ha came out at 10% in assay [4] (setting [16]) and 30% in assay [5] (setting [17]).
For the compound `CC(C)c1ccc(NC(=O)N(C)C)cc1` [Isoproturon, 3-(4-isopropylphenyl)-1,1-dimethylurea], the values for the pest or weed control at 200 g/ha in assay [4] (setting [9]) and in assay [5] (setting [12]) were 0% and 10%, respectively. The pest or weed control at 400 g/ha in assay [4] (setting [10]) came to 10%; in assay [5] (setting [13]) it was 20%. The pest or weed control at 800 g/ha was determined as 20% in assay [4] (setting [11]) and 40% in assay [5] (setting [14]).
Turning to `CCc1cccc(CC)c1N(COC)C(=O)CCl` [alachlor, N-methoxymethyl-2',6'-diethyl-2-chloroacetanilide, reference compound], the figures for the pest or weed control at 1000 g/ha in assay [3] and in assay [1] were 30% and 40%, respectively.
For the compound `CN(C)C(=O)Nc1cccc(C(F)(F)F)c1` [fluometuron, 1,1-dimethyl-3-(3-trifluoromethylphenyl)urea], the pest or weed control at 500 g/ha in assay [3] (setting [15]) was 30%. In addition, the pest or weed control at 500 g/ha in assay [1] was 30%. For the same compound, in assay [4] (setting [16]), the pest or weed control at 200 g/ha came to 0%, the pest or weed control at 400 g/ha was 10% and the pest or weed control at 800 g/ha was found to be 20%. Further, in assay [5] (setting [17]), the pest or weed control at 200 g/ha was determined as 20%, the pest or weed control at 400 g/ha turned out to be 30% and the pest or weed control at 800 g/ha was determined as 50%.
Consider `CCNc1nc(Cl)nc(NC(C)(C)C#N)n1` [cyanazine, 2-(2-chloro-4-ethylamino-1,3,5-triazine-6-ylamino)-2-methylpropionitrile], for which the pest or weed control at 1000 g/ha in assay [3] is 10%. The pest or weed control at 1000 g/ha in assay [1] stood at 40%. In assay [4] (setting [16]), the pest or weed control at 400 g/ha turned out to be 0%, the pest or weed control at 800 g/ha came out at 10% and the pest or weed control at 1600 g/ha came to 20%. In addition, in assay [5] (setting [17]), the pest or weed control at 400 g/ha came to 10%, the pest or weed control at 800 g/ha came out at 30% and the pest or weed control at 1600 g/ha stood at 50%.
Regarding `CN(C)C(=O)Nc1ccc(Cl)c(Cl)c1` [diuron, 3-(3,4-dichlorophenyl)-1,1-dimethylurea], in assay [3], the pest or weed control at 300 g/ha worked out at 10%. Further, the pest or weed control at 300 g/ha in assay [1] worked out at 40%. Also, in assay [4] (setting [16]), the pest or weed control at 200 g/ha was 0%, the pest or weed control at 400 g/ha came to 10% and the pest or weed control at 800 g/ha is 20%. In assay [5] (setting [17]), the pest or weed control at 200 g/ha amounted to 30%, the pest or weed control at 400 g/ha was 70% and the pest or weed control at 800 g/ha worked out at 85%.
